{"source": "patent US11738007B2", "about": "“Treatment of glaucoma using endothelin receptor antagonists” (Perfuse Therapeutics, Inc., priority 2019, dated 2023)", "key": {"ETA/ETB receptor": {"test_system": "ETA/ETB receptor", "test": "ETA/ETB selectivity (specificity)", "type": "biochemical", "conditions": "ETA versus ETB, rating in words", "source_text": "(§1) In the above table, the physicochemical data, e.g., solubility, were obtained following standard protocols known in the field (see, e.g., Reis et al., Mini Rev Med Chem., 2010, 10(11):1071-6; Avdeef et al., Expert Opin Drug Metab Toxicol., 2005, 1(2):325-42; Bharate et al., Comb Chem High Throughput Screen., 2016, 19(6):461-9; and Jain et al., J Pharm Biomed Anal., 2013, 86:11-35); and the biochemical data, i.e., potency for ETA/ETB, were obtained following the protocols known in the field (see, e.g., Kirkby et al., Br J Pharmacol., 2008, 153(6):1105-19; and Maguire et al., Br J Pharmacol., 2014, 171(24):5555-72)."}, "LogD": {"test": "LogD", "type": "physicochemical", "conditions": "pH 7.4", "source_text": "as §1"}, "Permeability (PAMPA)": {"test": "Permeability (PAMPA)", "type": "in vitro ADME", "conditions": "rating in words", "source_text": "as §1"}, "[1]": {"test_system": "elevated intraocular pressure (IOP)", "test": "Morrison's rat model of glaucoma (elevated IOP)", "type": "in vivo, Brown Norway rats", "conditions": "topical eye drops 100 μg per dose, five days a week, four weeks", "source_text": "Adult male and female retired breeder Brown Norway rats (approximate age groups of 8 to 11 months) were obtained from Envigo (Indianapolis, Ind.). Baseline IOP measurements and pattern electroretinogram (PERG) amplitudes were collected prior to the surgery for elevation of IOP (to ensure that the IOP and PERG amplitudes were in the expected range of values). IOP was elevated in one eye (left eye) of the rats, while the corresponding right eyes served as contralateral controls. The Morrison method to elevate IOP in rats was carried out by injection of 50 μL of hypertonic saline through the episcleral veins to sclerose the trabecular meshwork. IOP was measured twice a week throughout the entire duration of the experiment. […] After detecting an elevation of IOP for two consecutive days, topical administration of eye drops (20 μL (100 μg) per dose of the tested compounds in the IOP elevated eye) was commenced and carried out for five days a week for a total of four weeks. In the 4th week of treatment, PERG analysis was carried out and rats were sacrificed by an overdose of pentobarbital (Fatal-Plus). Aqueous humor was collected from the rat eyes, frozen and shipped for analysis. Retinal flat mounts were prepared, immunostained with the RGC marker, Brn3a antibody and surviving RGCs were counted in two eccentricities (central and peripheral). For this study, the Morrison's model was used to induce ocular hypertension in adult male retired breeder Brown Norway rats as previously described by Morrison et al., (Morrison J C, Moore […], Gold […], Johnson E C. A rat model of chronic pressure-induced optic nerve damage. Exp Eye Res. 1997; 64(1):85-96). The immunostained retinal flat mounts were obtained to measure the retinal ganglion cell (RGC) counts. To obtain immunostained retinal flat mounts, the animals were euthanized after the treatments and then their eyes were enucleated. The eye cups were fixed overnight at 4° C. in 4% paraformaldehyde (PFA) and retinal flat mounts were prepared for collecting images. The retinal ganglion cell (RGC) counting was conducted using the images of immunostained retinal flat mounts. The images were uploaded to ImageJ, a photo editor designed for biology research (Rasband, 1997-2018) and the labeled retinal ganglion cells were counted manually in two eccentricities (central and peripheral). […] Pattern ERG (PERG) was used to assess the RGC function. […] Briefly, PERG signals were acquired from a DTL-plus electrode placed on the lower part of the corneal surface and the PERG waves were analyzed using the EMWIN software (LKC). The difference between the amplitude of the major positive (P1) and negative (N2) waves were calculated to […] amplitude."}, "[2]": {"test": "Pharmacokinetics after topical or oral administration in the rat", "type": "in vivo, Brown Norway rats", "experimental": "After the administrations, the animals (N=2) were euthanized at different time points (e.g. 4 and 8 hours) and tissues were collected for analysis. List of tissues collected include plasma, retina/retinal pigment epithelium (RPE)/choroid, vitreous humor and aqueous humor."}, "[3]": {"test": "Pharmacokinetics after intravitreal administration in the rabbit", "type": "in vivo, rabbits (Oryctolagus cuniculus)", "conditions": "plasma and ocular tissues, FIG. 9A-9D", "experimental": "To determine the pharmacokinetic and safety properties of Edonentan following intravitreal administration in the rabbit, rabbits (Oryctolagus cuniculus) received bilateral intravitreal injections (20 μL injection volume/eye). Following the injections, animals were tranquilized with a ketamine/xylazine cocktail, and then the animals were euthanized with an overdose of sodium pentobarbital (Euthasol). Animals designated for the pharmacokinetic analysis were euthanized at different time points (e.g. 12, 16, 24, 36 and 48 hours). At least 1.0 mL of whole blood was drawn from the marginal ear vein or cardiac puncture (terminal bleed only) into K2EDTA tubes for plasma collection and processed for analytical analysis.\nImmediately following euthanasia, the eyes was enucleated. Aqueous humor from both eyes was removed via syringe and snap frozen for analysis. Eyes were dissected when frozen to isolate various ocular tissues and minimize drug diffusion to adjacent tissues. Tissues from left and right eyes were collected in separate vials for analysis. List of tissues collected include plasma and aqueous humor, iris/ciliary body (ICB), retina, vitreous humor and RPE/choroid. The pharmacokinetic properties of intravitreally delivered Edonentan in rabbits are shown in FIG. 9A, FIG. 9B, FIG. 9C and FIG. 9D."}, "laser-induced glaucoma": {"test_system": "laser-induced glaucoma", "test": "Laser-induced non-human primate glaucoma model, optic nerve head blood flow (LSFG)", "type": "in vivo, rhesus macaque, Macaca mulatta", "conditions": "IVT 50 μL of 0.02, 0.2 or 2.0 mg/mL, glaucomatous eye, over 6 hours", "experimental": "Non-human primates (rhesus macaque, Macaca mulatta) were obtained for this study. One eye of each animal underwent induction of elevation of intraocular pressure (IOP) by repeated laser photocoagulation of the trabecular meshwork. Imaging sessions were repeated to monitor the optic nerve head (ONH) and retinal structural changes. A study was performed to compare an experimental glaucoma eye and a contralateral healthy eye (control) of three non-human primates in global average mean blur rate (MBR) and MBR change from baseline over time as an index of ONH blood flow in a laser-induced glaucoma model. More specifically, a vehicle control, 0.02 mg/mL of Edonentan, 0.2 mg/mL of Edonentan, or 2.0 mg/mL of Edonentan was intravitreally administered (50 μL) to a glaucomatous eye of each of three non-human primates (rhesus macaque, Macaca mulatta). These graphs show the ONH blood flow in the three non-human primates after IVT administration of a vehicle alone (FIG. 7A, FIG. 7E, and FIG. 7I), 0.02 mg/mL of Edonentan (FIG. 7B, FIG. 7F, and FIG. 7J), 0.2 mg/mL of Edonentan (FIG. 7C, FIG. 7G, and FIG. 7K) or 2.0 mg/mL of Edonentan (FIG. 7D, FIG. 7H, and FIG. 7L)."}}}
{"compound": "Cc1onc(NS(=O)(=O)c2ccccc2-c2ccc(-c3ncco3)cc2CN(C)C(=O)CC(C)(C)C)c1C", "note": "[Edonentan, N-[[2′-[[(4,5-dimethyl-3-isoxazolyl)amino]sulfonyl]-4-(2-oxazolyl)[1,1′-biphenyl]-2-yl]methyl]-N,3,3-trimethylbutanamide]", "values": [{"measurement": "Specificity (rating)", "setting": "ETA/ETB receptor", "value": "High specificity"}, {"measurement": "logD", "setting": "LogD", "value": 1.48}, {"measurement": "Permeability (rating)", "setting": "Permeability (PAMPA)", "value": "Mid-High"}, {"measurement": "RGC function, pattern electroretinogram (PERG) changes", "setting": "[1]", "value": "maintained RGC function"}, {"measurement": "Retinal ganglion cell (RGC) counts, peripheral retina", "setting": "[1]", "value": "prevented RGC loss"}, {"measurement": "Detection in aqueous humor", "setting": "[2]; oral, 17 mg/kg", "value": "detectable"}, {"measurement": "Detection in retina/RPE/choroid and vitreous humor", "setting": "[2]; oral, 1.7 and 17 mg/kg", "value": "detectable"}, {"measurement": "Detection in retina/RPE/choroid, aqueous humor and vitreous humor", "setting": "[2]; topical eye drop 100 μg, 4 and 8 hours post-administration", "value": "detected"}, {"measurement": "t1/2", "setting": "[3]", "value": "longer"}, {"measurement": "Optic nerve head (ONH) blood flow, mean blur rate (MBR)", "setting": "laser-induced glaucoma", "value": "improvement of ONH blood flow in a dose-dependent manner"}]}
